Assay results reported in patent US9346761B2, “Arginine methyltransferase inhibitors and uses thereof” (Epizyme, Inc., priority 2013, dated 2016).

Tests used:
Full-length human PRMT6 = target: T1, Full-length human PRMT6 (Homo sapiens, UniProt Q96LA8); experiment: PRMT6 biochemical assay (3H-SAM Flashplate, peptide substrate)
T1 construct: Flag-PRMT6-His was eluted with 200 ug/ml FLAG peptide in the same buffer; made in house; host or cells: HEK 293F cells (BacMam virus, pFastBacMam)
From the text: (§1) General Materials. S-adenosylmethionine (SAM), S-adenosylhomocysteine (SAH), bicine, Tween20, dimethylsulfoxide (DMSO), bovine skin gelatin (BSG), sodium butyrate and Tris(2-carboxyethyl)phosphine hydrochloride solution (TCEP) were purchased from Sigma-Aldrich at the highest level of purity possible. ^3H-SAM was purchase from American Radiolabeled Chemicals with a specific activity of 80 Ci/mmol. 384-well streptavidin Flashplates were purchased from PerkinElmer.
Substrates. Peptide representative of human histone H4 residues 36-50 was synthesized with an N-terminal linker-affinity tag motif and a C-terminal amide cap by 21st Century Biochemicals.
The amplified gene was subcloned into pFastBacMam (Viva Biotech).
Protein Expression. Recombinant baculovirus were generated according to Bac-to-Bac kit instructions (Life Technologies). […] Infections were carried out at 37° C. for 48 hours, harvested by centrifugation, and stored at −80° C. for purification.
Protein Purification. […] Column was washed with 20 mM imidazole in the same buffer and Flag-PRMT6-His was eluted with 150 mM imidazole. Pooled fractions were dialysed against buffer Ni-A and further purified by anti-flag M2 affinity chromatography. Flag-PRMT6-His was eluted with 200 ug/ml FLAG peptide in the same buffer. Pooled fractions were dialysed in 20 mM Tris, 150 mM NaCl, 10% glycerol and 5 mM β-mercaptoethanol, pH 7.8.
(§2) General Procedure for PRMT6 Enzyme Assays on Peptide Substrates. The assays were all performed in a buffer consisting of 20 mM Bicine (pH=7.6), 1 mM TCEP, 0.005% BSG, and 0.002% Tween 20, prepared on the day of use. […] DMSO (1 ul) was added to Columns 11, 12, 23, 24, rows A-H for the maximum signal control and 1 ul of SAH, a known product and inhibitor of PRMT6, was added to columns 11, 12, 23, 24, rows I-P for the minimum signal control. A cocktail (40 ul) containing the PRMT6 enzyme was added by Multidrop Combi (Thermo-Fisher). The compounds were allowed to incubate with PRMT6 for 30 min at room temperature, then a cocktail (10 ul) containing SAM and peptide was added to initiate the reaction (final volume=51 ul). […] The assays were stopped by the addition of non-radiolabeled SAM (10 ul) to a final concentration of 400 uM, which dilutes the ^3H-SAM to a level where its incorporation into the peptide substrate is no longer detectable. 50 ul of the reaction in the 384-well polypropylene plate was then transferred to a 384-well Flashplate and the biotinylated peptides were allowed to bind to the streptavidin surface for at least 1 hour before being washed once with 0.1% Tween20 in a Biotek ELx405 plate washer. The plates were then read in a PerkinElmer TopCount plate reader to measure the quantity of ^3H-labeled peptide bound to the Flashplate surface, measured as disintegrations per minute (dpm) or alternatively, referred to as counts per minute (cpm).
(§3) Where dpm=disintegrations per minute, cmpd=signal in assay well, and min and max are the respective minimum and maximum signal controls.
(§4) Where top and bottom are the normally allowed to float, but may be fixed at 100 or 0 respectively in a 3-parameter fit. The Hill Coefficient normally allowed to float but may also be fixed at 1 in a 3-parameter fit. Y is the % inhibition and X is the compound concentration.

[1] = tested on: mono-methyl arginine in RKO cells; experiment: RKO methylation assay, In Cell Western for mono-methyl arginine and DNA content; assay type: cell-based; conditions: Homo sapiens; In Cell Western, RKO cells, 72 hours, percent activation of mono-methyl arginine signal; read-out: EC30
From the text: RKO adherent cells were purchased from ATCC (American Type Culture Collection), Manassas, Va., USA. DMEM/Glutamax medium, penicillin-streptomycin, heat inactivated fetal bovine serum, 0.05% trypsin and D-PBS were purchased from Life Technologies, Grand Island, N.Y., USA. Odyssey blocking buffer, 800CW goat anti-rabbit IgG (H+L) antibody, and Licor Odyssey infrared scanner were purchased from Licor Biosciences, Lincoln, Nebr., USA. Mono-methyl arginine antibody was purchased from Cell Signaling Technology, Danvers, Mass., USA. Methanol was purchased from VWR, Franklin, Mass., USA. 10% Tween 20 was purchased from KPL, Inc., Gaithersburg, Md., USA. […] was purchased from Biostatus Limited, Leicestershire, UK.
RKO adherent cells were maintained in growth medium (DMEM/Glutamax medium supplemented with 10% v/v heat inactivated fetal bovine serum and 100 units/mL penicillin-streptomycin) and cultured at 37° C. under 5% CO2
Cell Treatment, in Cell Western (ICW) for Detection of Mono-Methyl Arginine and DNA Content. […] Compound (100 nL) from a 96-well source plate was added directly to 384 well cell plate. Plates were incubated at 37° C., 5% CO2 for 72 hours. After three days of incubation, plates were brought to room temperature outside of the incubator for ten minutes and blotted on paper towels to remove cell media. 50 μL of ice cold 100% methanol was added directly to each well and incubated for 30 min at room temperature. After 30 min, plates were transferred to a Biotek EL406 plate washer and washed 2 times with 100 μL per well of wash buffer (1×PBS). Next 60 μL per well of Odyssey blocking buffer (Odyssey Buffer with 0.1% Tween 20 (v/v)) were added to each plate and incubated 1 hour at room temperature. Blocking buffer was removed and 20 μL per well of primary antibody was added (mono-methyl arginine diluted 1:200 in Odyssey buffer with 0.1% Tween 20 (v/v)) and plates were incubated overnight (16 hours) at 4° C. Plates were washed 5 times with 100 μL per well of wash buffer. […] The plates were washed 5 times with 100 μL per well wash buffer then 2 times with 100 μL per well of water. Plates were allowed to dry at room temperature then imaged on the Licor Odyssey machine which measures integrated intensity at 700 nm and 800 nm wavelengths. Both 700 and 800 channels were scanned.
Calculations: First, the ratio for each well was determined by:
Each plate included fourteen control wells of DMSO only treatment (minimum activation) as well as fourteen control wells for maximum activation treated with 20 μM of a reference compound. The average of the ratio values for each control type was calculated and used to determine the percent activation for each test well in the plate. Reference compound was serially diluted three-fold in DMSO for a total of nine test concentrations, beginning at 20 μM. Percent activation was determined and EC30 curves were generated using triplicate wells per concentration of compound.

[2] = target: T2, Full-length human PRMT1 isoform 1 (Homo sapiens, UniProt Q99873); experiment: PRMT1 biochemical assay (3H-SAM Flashplate, peptide substrate)
T2 construct: GST-tagged PRMT1; made in house; host or cells: High Five insect cells (baculovirus, pFastBacI)
T2 sequence (Q99873 with tags, fused parts or gaps): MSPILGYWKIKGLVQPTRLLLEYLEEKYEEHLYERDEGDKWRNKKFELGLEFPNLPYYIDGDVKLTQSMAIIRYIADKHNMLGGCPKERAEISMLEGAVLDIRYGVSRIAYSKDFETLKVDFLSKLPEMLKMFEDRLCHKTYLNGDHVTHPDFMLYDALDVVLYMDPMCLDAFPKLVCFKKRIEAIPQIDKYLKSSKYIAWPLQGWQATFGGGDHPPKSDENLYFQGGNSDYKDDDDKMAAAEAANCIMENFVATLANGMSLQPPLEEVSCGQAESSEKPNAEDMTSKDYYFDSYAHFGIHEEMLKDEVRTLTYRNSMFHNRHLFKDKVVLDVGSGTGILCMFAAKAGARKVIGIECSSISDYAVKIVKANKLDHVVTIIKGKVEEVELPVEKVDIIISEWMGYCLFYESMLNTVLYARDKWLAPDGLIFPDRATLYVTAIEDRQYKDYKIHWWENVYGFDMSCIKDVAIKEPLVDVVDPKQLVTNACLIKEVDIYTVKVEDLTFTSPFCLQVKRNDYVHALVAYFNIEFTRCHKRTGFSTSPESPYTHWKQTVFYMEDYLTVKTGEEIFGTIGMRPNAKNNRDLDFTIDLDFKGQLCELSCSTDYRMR
From the text: as §1, with “(BSG),” for “(BSG), sodium butyrate”
Protein Expression. Recombinant baculovirus were generated according to Bac-to-Bac kit instructions (Life Technologies). […] Infections were carried out at 27° C. for 48 hours, harvested by centrifugation, and stored at −80° C. for purification.
Protein Purification. […] GST-tagged PRMT1 was eluted with 50 mM Tris, 2 mM glutathione, pH 7.8, dialysed in buffer A and concentrated to 1 mg/mL.
as §2, with “PRMT1” for “PRMT6”, “PRMT1,” for “PRMT6,”, “300” for “400”
as §3, §4

T1 sequence (Q96LA8 with tags, fused parts or gaps): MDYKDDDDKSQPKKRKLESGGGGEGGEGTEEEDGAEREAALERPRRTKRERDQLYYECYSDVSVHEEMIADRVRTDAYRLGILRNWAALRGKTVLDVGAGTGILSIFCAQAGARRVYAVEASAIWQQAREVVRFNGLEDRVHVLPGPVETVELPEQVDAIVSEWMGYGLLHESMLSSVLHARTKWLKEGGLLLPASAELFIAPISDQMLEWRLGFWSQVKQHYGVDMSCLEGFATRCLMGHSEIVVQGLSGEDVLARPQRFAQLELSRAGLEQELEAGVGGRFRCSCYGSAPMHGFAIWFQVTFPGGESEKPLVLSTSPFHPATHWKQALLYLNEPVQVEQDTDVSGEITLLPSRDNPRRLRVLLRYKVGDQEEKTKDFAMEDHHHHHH

SMILES | IC50 (Full-length human PRMT6) | EC30 [1] | IC50 [2]
CNCCN(C)Cc1n[nH]cc1-c1cc(Cl)c(OC(C)C)c(Cl)c1 [Compound 273] | < 0.1 µM | < 3 µM | < 0.1 µM
CNCCN(C)Cc1c[nH]nc1-c1ccc(Oc2cccc(C(=O)NC)c2)cc1 [Compound 263] | < 0.1 µM | < 3 µM | < 0.1 µM
CNCCN(C)Cc1c[nH]nc1-c1cc(C(C)C)cc(C(C)C)c1 [Compound 229, N^1-((3-(3,5-diisopropylphenyl)-1H-pyrazol-4-yl)methyl)-N^1,N^2-dimethylethane-1,2-diamine] | 0.101 to 1 µM | 3.01 to 12 µM | < 0.1 µM
CNCCN(C)Cc1n[nH]cc1-c1cc(CC(C)C)cc(CC(C)C)c1 [Compound 271] | 0.101 to 1 µM | > 12 µM | < 0.1 µM
CNCCN(C)Cc1c[nH]nc1-c1ccc(Oc2cccc(F)c2)cc1 [Compound 231] | < 0.1 µM | < 3 µM | < 0.1 µM
CNCCN(C)Cc1c[nH]nc1-c1ccc(Oc2ccccc2)c(C(=O)N(C)C)c1 [Compound 233] | < 0.1 µM | > 12 µM | < 0.1 µM
CNCCN(C)Cc1c[nH]nc1-c1ccc(Oc2cccc(OC)c2)cc1 [Compound 230] | < 0.1 µM | < 3 µM | < 0.1 µM
CNCCN(C)Cc1n[nH]cc1-c1ccc(Oc2cccc(C(C)C)c2)cc1 [Compound 277] | < 0.1 µM | > 12 µM | < 0.1 µM
CNCCN(C)Cc1c[nH]nc1-c1ccc(Oc2ccccc2C(=O)NC)cc1 [Compound 274] | < 0.1 µM | < 3 µM | < 0.1 µM
CNCCN(C)Cc1c[nH]nc1-c1cc(Cl)c(OC(C)C)c(Cl)c1 [Compound 265, N^1-((3-(3,5-dichloro-4-isopropoxyphenyl)-1H-pyrazol-4-yl)methyl)-N^1,N^2-dimethylethane-1,2-diamine] | < 0.1 µM | < 3 µM | < 0.1 µM
CN(CCN)Cc1c[nH]nc1-c1ccc(OCCCN2CCOCC2)cc1 [Compound 186] | < 0.1 µM | > 12 µM | 
CNCCN(C)Cc1n[nH]cc1-c1ccc(Oc2ccccc2)c(C(=O)NC)c1 [Compound 240] | < 0.1 µM | 3.01 to 12 µM | < 0.1 µM
CC(C)Oc1ccc(-c2nn(C)cc2CN(C)CCN)cc1 [Compound 176] | < 0.1 µM | < 3 µM | < 0.1 µM
CNCCN(C)Cc1n[nH]cc1-c1ccc(Oc2cccc(C(=O)NC)c2)cc1 [Compound 268] | < 0.1 µM | 3.01 to 12 µM | < 0.1 µM
CNCCN(C)Cc1n[nH]cc1-c1cc(C(C)C)cc(C(C)C)c1 [Compound 242] | 1.01 to 3 µM | > 12 µM | 0.101 to 1 µM
CNCCN(C)Cc1n[nH]cc1-c1ccc(Oc2ccccc2C(=O)NC)cc1 [Compound 278] | < 0.1 µM | 3.01 to 12 µM | 
COCCn1cnc(-c2ccc(C#N)cc2)c1CN(C)CCN [Compound 223] |  | > 12 µM | > 10 µM
CNCCN(C)Cc1cnn(C)c1-c1ccc(OC(C)C)c(Cl)c1 [Compound 220, N^1-((5-(3-chloro-4-isopropoxyphenyl)-1-methyl-1H-pyrazol-4-yl)methyl)-N^1,N^2-dimethylethane-1,2-diamine] | < 0.1 µM | < 3 µM | 
CNCCN(C)Cc1c[nH]nc1-c1ccc(OC(C)C)cc1 [Compound 19, N^1-((3-(4-isopropoxyphenyl)-1H-pyrazol-4-yl)methyl)-N^1,N^2-dimethylethane-1,2-diamine] | < 0.1 µM | < 3 µM | 
CN(CCN)Cc1c[nH]nc1-c1ccc(Oc2ccccc2)cc1 [Compound 200] |  | < 3 µM | 
CNCCN(C)Cc1c[nH]nc1-c1ccc(Oc2cccc(C(=O)N(C)C)c2)cc1 [Compound 264] | < 0.1 µM | 3.01 to 12 µM | 
CNCCN(C)Cc1cn[nH]c1-c1ccc(OC(C)C)c(Cl)c1 [Compound 201] | < 0.1 µM | < 3 µM | 
CNCCN(C)Cc1n[nH]cc1-c1ccc(Oc2cccc(C(=O)N(C)C)c2)cc1 [Compound 269] | < 0.1 µM | > 12 µM | 
CN(CCN)Cc1c[nH]nc1-c1ccc(N2CCN(C(=O)Cc3ccccc3)CC2)cc1 [Compound 190] | < 0.1 µM | 3.01 to 12 µM | 
